According to patent US8952024B2, “Herbicidal pyrimidone derivatives” (E I du Pont de Nemours and Company, priority 2009, dated 2015):

What was measured:
Type in all cases: in vivo
[1] = tested on: ducksalad (Heteranthera limosa); assay: Test B flooded paddy test; conditions: for Plant response rating, Flood, Ducksalad: 250 g ai/ha, flooded paddy test, visual rating on 0 to 100 scale (0 no effect, 100 complete control) after 13 to 15 days; for Plant response rating, Ducksalad: Flood (flooded paddy test), 13 to 15 days
Method in brief: (§1)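 2-leaf seedlings; pots flooded 3 cm over soil at treatment; cpd dosed into floodwater, depth kept constant. Greenhouse 13–15 d. Visual rating vs untreated controls, 0 = no effect, 100 = complete control.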

[2] = tested on: rice (Oryza sativa); assay: Test B flooded paddy test; conditions: for Plant response rating, Flood, Rice: 250 g ai/ha, flooded paddy test, visual rating on 0 to 100 scale (0 no effect, 100 complete control) after 13 to 15 days; for Plant response rating, Rice: Flood (flooded paddy test), 13 to 15 days
Method in brief: as §1

[3] = tested on: barnyardgrass (Echinochloa crus-galli); assay: Test B flooded paddy test; conditions: for Plant response rating, Flood, Barnyardgrass: 250 g ai/ha, flooded paddy test, visual rating on 0 to 100 scale (0 no effect, 100 complete control) after 13 to 15 days; for Plant response rating, Barnyardgrass: Flood (flooded paddy test), 13 to 15 days
Method in brief: as §1

[4] = tested on: umbrella sedge (Cyperus difformis); assay: Test B flooded paddy test; conditions: for Plant response rating, Flood, Sedge, Umbrella: 250 g ai/ha, flooded paddy test, visual rating on 0 to 100 scale (0 no effect, 100 complete control) after 13 to 15 days; for Plant response rating, Sedge, Umbrella: Flood (flooded paddy test), 13 to 15 days
Method in brief: as §1

[5] = tested on: nightshade (eastern black nightshade, Solanum ptycanthum); assay: Test B pre-/postemergence plant response; conditions: Preemergence
Method in brief: (§2)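 Visual injury, 0–100 scale (100 = complete control), rated against controls after 13 to 15 days in greenhouse. Pre-emergence: seeds in loam/sand soil, treated at planting. Post-emergence: 1- to 4-leaf plants (2 to 18 cm) in peat/vermiculite medium. Compounds formulated in non-phytotoxic solvent with surfactant.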

[6] = tested on: morningglory (Ipomoea coccinea); assay: Test B pre-/postemergence plant response
Method in brief: as §2

[7] = tested on: bermudagrass (Cynodon dactylon); assay: Test B pre-/postemergence plant response
Method in brief: as §2

[8] = tested on: sunflower (common oilseed sunflower, Helianthus annuus); assay: Test B pre-/postemergence plant response; conditions: Preemergence
Method in brief: as §2

[9] = tested on: galium (catchweed bedstraw, Galium aparine); assay: Test B pre-/postemergence plant response; conditions: Preemergence
Method in brief: as §2

[10] = tested on: chickweed (Stellaria media); assay: Test B postemergence plant response
Method in brief: (§3)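 Plants grown in peat/vermiculite medium were sprayed postemergence at 2–18 cm height (1- to 4-leaf stage). After 13–15 days in the greenhouse, response was rated visually against untreated controls on a 0–100 scale (0 no effect, 100 complete control).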

[11] = tested on: windgrass (Apera spica-venti); assay: Test B postemergence plant response
Method in brief: as §3

[12] = tested on: winter barley (Hordeum vulgare); assay: Test B postemergence plant response
Method in brief: as §3

[13] = tested on: canarygrass (Phalaris minor); assay: Test B postemergence plant response
Method in brief: as §3

[14] = 31 g ai/ha, scale of 0 to 100 where 0 is no effect and 100 is complete control
[15] = 62 g ai/ha, scale of 0 to 100 where 0 is no effect and 100 is complete control
[16] = 125 g ai/ha, scale 0 to 100, 0 is no effect, 100 is complete control
[17] = 31 g ai/ha, scale 0 to 100 (0 no effect, 100 complete control)
[18] = 62 g ai/ha, scale 0 to 100, 0 no effect, 100 complete control
[19] = 125 g ai/ha, scale 0 to 100, 0 no effect, 100 complete control
[20] = 31 g ai/ha, postemergence, scale 0 to 100, 0 is no effect, 100 is complete control
[21] = 250 g ai/ha, Preemergence, 0 to 100 scale
[22] = Postemergence, 62 g ai/ha, scale 0 (no effect) to 100 (complete control), 13 to 15 days
[23] = Postemergence, 125 g ai/ha, visual rating after 13 to 15 days, scale 0 (no effect) to 100 (complete control)
[24] = Postemergence, 250 g ai/ha, scale 0 to 100 (0 no effect, 100 complete control)
[25] = Preemergence, 31 g ai/ha, scale 0 to 100 (0 no effect, 100 complete control)
[26] = Preemergence, 62 g ai/ha, scale 0 to 100, 0 no effect, 100 complete control
[27] = Preemergence, 125 g ai/ha, scale 0 to 100, 0 no effect, 100 complete control
[28] = Flood, 31 g ai/ha, scale 0 to 100 (0 no effect, 100 complete control)
[29] = Postemergence, 31 g ai/ha, 0 to 100 scale (0 no effect, 100 complete control)
[30] = Postemergence, 125 g ai/ha, scale 0 to 100 (0 no effect, 100 complete control)
[31] = Postemergence, 250 g ai/ha, scale 0 to 100 (0 no effect, 100 complete control), 13 to 15 days
[32] = Postemergence, 62 g ai/ha, scale 0 to 100 (0 no effect, 100 complete control)

SMILES: Cc1ccc(Cl)cc1-n1c(-c2ccccc2)ncc(C(=O)C2=C(O)CCCC2=O)c1=O [Compound 52]
- Plant response rating, Flood, Ducksalad [1]: 70
- Plant response rating, Ducksalad [1, 14]: 0
- Plant response rating, Ducksalad [1, 15]: 0
- Plant response rating, Ducksalad [1, 16]: 40
- Plant response rating, Flood, Rice [2]: 60
- Plant response rating, Rice [2, 14]: 0
- Plant response rating, Rice [2, 15]: 0
- Plant response rating, Rice [2, 16]: 50
- Plant response rating, Flood, Barnyardgrass [3]: 55
- Plant response rating, Barnyardgrass [3, 14]: 0
- Plant response rating, Barnyardgrass [3, 15]: 0
- Plant response rating, Barnyardgrass [3, 16]: 40
- Plant response rating, Flood, Sedge, Umbrella [4]: 40
- Plant response rating, Sedge, Umbrella [4, 14]: 20
- Plant response rating, Sedge, Umbrella [4, 15]: 30
- Plant response rating, Sedge, Umbrella [4, 16]: 30
- Plant response rating, Nightshade ([5]; 250 g ai/ha, 0 to 100 scale): 100
- Plant response rating, Nightshade [5, 17]: 90
- Plant response rating, Nightshade [5, 18]: 95
- Plant response rating, Nightshade [5, 19]: 98
- Plant response rating, Morningglory [6, 20]: 10
- Plant response rating, Morningglory [6, 21]: 55
- Plant response rating, Morningglory [6, 22]: 45
- Plant response rating, Morningglory [6, 23]: 75
- Plant response rating, Morningglory [6, 24]: 85
- Plant response rating, Morningglory [6, 25]: 0
- Plant response rating, Morningglory [6, 26]: 0
- Plant response rating, Morningglory [6, 27]: 45
- Plant response rating, Bermudagrass [7, 20]: 85
- Plant response rating, Bermudagrass [7, 21]: 100
- Plant response rating, Bermudagrass [7, 22]: 95
- Plant response rating, Bermudagrass [7, 23]: 95
- Plant response rating, Bermudagrass [7, 24]: 100
- Plant response rating, Bermudagrass [7, 25]: 98
- Plant response rating, Bermudagrass [7, 26]: 98
- Plant response rating, Bermudagrass [7, 27]: 98
- Plant response rating, Sunflower ([8]; 250 g ai/ha, 0 to 100 scale): 75
- Plant response rating, Sunflower [8, 17]: 10
- Plant response rating, Sunflower [8, 18]: 10
- Plant response rating, Sunflower [8, 19]: 70
- Plant response rating, Galium ([9]; 250 g ai/ha, 0 to 100 scale): 95
- Plant response rating, Galium [9, 17]: 0
- Plant response rating, Galium [9, 18]: 0
- Plant response rating, Galium [9, 19]: 70
- Plant response rating, Chickweed [10, 20]: 95
- Plant response rating, Chickweed [10, 22]: 95
- Plant response rating, Chickweed [10, 23]: 95
- Plant response rating, Chickweed [10, 24]: 98
- Plant response rating, Windgrass [11, 20]: 60
- Plant response rating, Windgrass [11, 22]: 80
- Plant response rating, Windgrass [11, 23]: 90
- Plant response rating, Windgrass [11, 24]: 100
- Plant response rating, Barley [12, 20]: 0
- Plant response rating, Barley [12, 22]: 0
- Plant response rating, Barley [12, 23]: 25
- Plant response rating, Barley [12, 24]: 25
- Plant response rating, Canarygrass [13, 20]: 0
- Plant response rating, Canarygrass [13, 22]: 50
- Plant response rating, Canarygrass [13, 23]: 65
- Plant response rating, Canarygrass [13, 24]: 85

SMILES: CCc1cccc(-n2c(-c3ccccc3)ncc(C(=O)C3=C(O)CCCC3=O)c2=O)c1 [Compound 220]
- Plant response rating, Flood, Ducksalad [1]: 100
- Plant response rating, Ducksalad [1, 15]: 40
- Plant response rating, Ducksalad [1, 16]: 85
- Ducksalad plant response rating [1, 28]: 30
- Plant response rating, Flood, Rice [2]: 70
- Plant response rating, Rice [2, 15]: 15
- Plant response rating, Rice [2, 16]: 50
- Rice plant response rating [2, 28]: 0
- Plant response rating, Flood, Barnyardgrass [3]: 40
- Plant response rating, Barnyardgrass [3, 15]: 0
- Plant response rating, Barnyardgrass [3, 16]: 30
- Barnyardgrass plant response rating [3, 28]: 0
- Plant response rating, Flood, Sedge, Umbrella [4]: 85
- Plant response rating, Sedge, Umbrella [4, 15]: 0
- Plant response rating, Sedge, Umbrella [4, 16]: 20
- Sedge, Umbrella plant response rating [4, 28]: 0
- Plant response rating, Nightshade [5, 17]: 65
- Plant response rating, Nightshade [5, 18]: 90
- Plant response rating, Nightshade [5, 19]: 98
- Nightshade plant response rating ([5]; 250 g ai/ha, 0 to 100 scale): 100
- Plant response rating, Morningglory [6, 29]: 65
- Plant response rating, Morningglory [6, 30]: 98
- Plant response rating, Morningglory [6, 31]: 100
- Plant response rating, Morningglory [6, 32]: 65
- Plant response rating, Morningglory [6, 25]: 0
- Plant response rating, Morningglory [6, 26]: 0
- Plant response rating, Morningglory [6, 27]: 0
- Morningglory plant response rating ([6]; Preemergence, 250 g ai/ha, 0 to 100 scale): 90
- Plant response rating, Bermudagrass [7, 29]: 80
- Plant response rating, Bermudagrass [7, 30]: 98
- Plant response rating, Bermudagrass [7, 31]: 100
- Plant response rating, Bermudagrass [7, 32]: 95
- Plant response rating, Bermudagrass [7, 25]: 80
- Plant response rating, Bermudagrass [7, 26]: 98
- Plant response rating, Bermudagrass [7, 27]: 98
- Bermudagrass plant response rating ([7]; Preemergence, 250 g ai/ha, 0 to 100 scale, 0 no effect, 100 complete control): 100
- Plant response rating, Sunflower [8, 17]: 0
- Plant response rating, Sunflower [8, 18]: 45
- Plant response rating, Sunflower [8, 19]: 70
- Sunflower plant response rating ([8]; 250 g ai/ha, 0 to 100 scale): 90
- Plant response rating, Galium [9, 17]: 0
- Plant response rating, Galium [9, 18]: 50
- Plant response rating, Galium [9, 19]: 90
- Galium plant response rating ([9]; 250 g ai/ha, 0 to 100 scale): 100
- Plant response rating, Chickweed [10, 29]: 95
- Plant response rating, Chickweed [10, 30]: 98
- Plant response rating, Chickweed [10, 31]: 100
- Plant response rating, Chickweed [10, 32]: 95
- Plant response rating, Windgrass [11, 29]: 5
- Plant response rating, Windgrass [11, 31]: 60
- Plant response rating, Windgrass [11, 32]: 40
- Plant response rating, Barley [12, 29]: 10
- Plant response rating, Barley [12, 30]: 10
- Plant response rating, Barley [12, 31]: 15
- Plant response rating, Barley [12, 32]: 10
- Plant response rating, Canarygrass [13, 29]: 10
- Plant response rating, Canarygrass [13, 30]: 10
- Plant response rating, Canarygrass [13, 31]: 30
- Plant response rating, Canarygrass [13, 32]: 10
